The structures appear in SMILES notation. Where a name gives a salt, the structure may show the parent alone.

One series has as its target T1, 5-HT1A receptor (Homo sapiens, UniProt P08908).
T1 sequence (P08908 1-422): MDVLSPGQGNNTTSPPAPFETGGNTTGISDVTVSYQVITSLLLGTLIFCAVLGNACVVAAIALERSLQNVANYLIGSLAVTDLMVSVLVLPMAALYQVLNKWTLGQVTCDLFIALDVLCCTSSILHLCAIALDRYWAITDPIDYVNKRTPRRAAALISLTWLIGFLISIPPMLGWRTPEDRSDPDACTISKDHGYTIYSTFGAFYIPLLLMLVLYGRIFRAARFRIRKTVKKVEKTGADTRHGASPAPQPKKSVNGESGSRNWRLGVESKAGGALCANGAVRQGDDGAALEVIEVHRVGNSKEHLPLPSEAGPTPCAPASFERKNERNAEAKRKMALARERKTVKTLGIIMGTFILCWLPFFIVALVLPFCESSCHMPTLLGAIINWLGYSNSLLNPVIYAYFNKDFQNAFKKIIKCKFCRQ
Briefly: antagonism of the 5-HT1A receptor (stated in words, no method). The class given is biochemical.

The target of another series is 5-HT1B receptor (Homo sapiens, UniProt P28222). Description: antagonism of the 5-HT1B receptor, selectivity comparison (stated in words, no method). The settings on record: better antagonist of 5-HT1A than of 5-HT1B. The class given is biochemical.
The nature of series [1]: solubility of the free base (stated in words, no method). It is filed as physicochemical. The conditions noted are these: said to be therefore not readily bioavailable.
A short description of series [2]: hygroscopicity of the dihydrochloride salt (stated in words, no method). The class given is physicochemical. The conditions noted are these: shows variable stoichiometry.

5-HT1B receptor, sequence (P28222 whole entry): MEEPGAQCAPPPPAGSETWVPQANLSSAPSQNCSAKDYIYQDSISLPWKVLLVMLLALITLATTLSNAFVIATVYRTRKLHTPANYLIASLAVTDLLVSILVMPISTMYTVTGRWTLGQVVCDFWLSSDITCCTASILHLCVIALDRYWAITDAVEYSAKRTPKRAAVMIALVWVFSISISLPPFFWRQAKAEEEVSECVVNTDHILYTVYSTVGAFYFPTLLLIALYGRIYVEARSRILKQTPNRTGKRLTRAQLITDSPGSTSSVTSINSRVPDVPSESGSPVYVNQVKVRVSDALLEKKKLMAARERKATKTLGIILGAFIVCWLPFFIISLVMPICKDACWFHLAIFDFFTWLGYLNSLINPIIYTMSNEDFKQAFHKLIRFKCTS

Regarding `Cc1ccc2c(N3CCN(CCc4c(C)ccc5c4CCc4c(C(N)=O)ncn4-5)CC3)cccc2n1.O.O=C(O)/C=C\C(=O)O` [salt of the invention, 7-methyl-6-{2-[4-(2-methyl-5-quinolinyl)-1-piperazinyl]ethyl}-4,5-dihydroimidazo[1,5-a]quinoline-3-carboxamide monomaleate monohydrate], the “antagonist of the 5-HT1A receptor” value on 5-HT1A receptor is “effective antagonist”. Further, the “selectivity for the 5-HT1A receptor over the 5-HT1B receptor” value at 5-HT1B receptor is “high selectivity”.

Turning to `Cc1ccc2c(N3CCN(CCc4c(C)ccc5c4CCc4c(C(N)=O)ncn4-5)CC3)cccc2n1` [free base, 7-methyl-6-{2-[4-(2-methyl-5-quinolinyl)-1-piperazinyl]ethyl}-4,5-dihydroimidazo[1,5-a]quinoline-3-carboxamide], the solubility result in series [1] was “insoluble”.

Take `Cc1ccc2c(N3CCN(CCc4c(C)ccc5c4CCc4c(C(N)=O)ncn4-5)CC3)cccc2n1` [dihydrochloride salt, 7-methyl-6-{2-[4-(2-methyl-5-quinolinyl)-1-piperazinyl]ethyl}-4,5-dihydroimidazo[1,5-a]quinoline-3-carboxamide]: in series [2], the hygroscopicity entry is “hygroscopic”.

(Values after patent US20100317672A1, “Monomaleate Monohydrate Salt of a 5HT1A Receptor Antagonist” (GLAXO GROUP LIMITED, priority 2008, published 2010).)
